Values joined by “and” are separate entries in the source; they are usually repeats but may differ in a detail not shown here. Equal entries are not always repeated. Toxic doses and inconclusive results are not listed. Peptide text beside a SMILES is read from it. * marks the point of attachment. Cbz = O=C(OCc1ccccc1)*
Tested on: P388 leukemia ip, CD2F1 mice, survival T/C
Assay: NCI In Vivo Anticancer Drug Screen. Data for tumor model P388 Leukemia (intraperitoneal) in CD2F1 (CDF1) mice
Settings: endpoint: median survival time, higher = longer survival
Summary of the method: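 Mice carrying the transplanted tumor received test compound or vehicle. Survival was recorded in each group, and the value is the treated-group measurement divided by that of the vehicle-treated control group.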

[1] = dose: 50.0 mg/kg/injection, schedule: Q01DX005 (ip), vehicle: saline with Tween-80
[2] = dose: 100.0 mg/kg/injection, schedule: Q01DX005 (ip), vehicle: saline with Tween-80
[3] = dose: 200.0 mg/kg/injection, schedule: Q01DX005 (ip), vehicle: saline with Tween-80
[4] = dose: 50.0 mg/kg/injection, schedule: Q01DX005 (ip), vehicle: saline
[5] = dose: 100.0 mg/kg/injection, schedule: Q01DX005 (ip), vehicle: saline
[6] = dose: 200.0 mg/kg/injection, schedule: Q01DX005 (ip), vehicle: saline
[7] = dose: 50.0 mg/kg/injection, schedule: Q01DX009 (ip), vehicle: saline
[8] = dose: 100.0 mg/kg/injection, schedule: Q01DX009 (ip), vehicle: saline
[9] = dose: 200.0 mg/kg/injection, schedule: Q01DX009 (ip), vehicle: saline
[10] = dose: 60.0 mg/kg/injection, schedule: Q01DX005 (ip), vehicle: saline with Tween-80
[11] = dose: 100.0 mg/kg/injection, schedule: Q01DX009 (ip), vehicle: saline with Tween-80
[12] = dose: 200.0 mg/kg/injection, schedule: Q01DX009 (ip), vehicle: saline with Tween-80
[13] = dose: 120.0 mg/kg/injection, schedule: Q01DX005 (ip), vehicle: saline with Tween-80
[14] = dose: 240.0 mg/kg/injection, schedule: Q01DX005 (ip), vehicle: saline with Tween-80
[15] = dose: 12.5 mg/kg/injection, schedule: Q01DX009 (ip), vehicle: saline
[16] = dose: 50.0 mg/kg/injection, schedule: Q01DX005 (ip), vehicle: Klucel (hydroxypropylcellulose) (HPC)
[17] = dose: 100.0 mg/kg/injection, schedule: Q01DX005 (ip), vehicle: Klucel (hydroxypropylcellulose) (HPC)
[18] = dose: 3.12 mg/kg/injection, schedule: Q01DX009 (ip), vehicle: saline
[19] = dose: 6.25 mg/kg/injection, schedule: Q01DX009 (ip), vehicle: saline

## CCOC(=O)/C=C(/C)SC1=CC(=O)C=CC1=O
[1]
  T/C: 92 % of control
[2]
  T/C: 92 % of control
[3]
  T/C: 100 % of control

## CCNC(=O)C(C)O (stereo not drawn)
[4]
  T/C: 102 % of control
[5]
  T/C: 102 % of control
[6]
  T/C: 98 % of control

## CC1(C)NC1C(O)c1ccccc1 (stereo not drawn)
[7]
  T/C: 102 % of control
[8]
  T/C: 103 % of control
[9]
  T/C: 104 % of control

## CCOC(=O)N/N=C(\C)c1nc2ccccc2[nH]1
dose: 15.0 mg/kg/injection, schedule: Q01DX005 (ip), vehicle: saline with Tween-80
  T/C: 106 % of control
dose: 30.0 mg/kg/injection, schedule: Q01DX005 (ip), vehicle: saline with Tween-80
  T/C: 108 % of control
dose: 60.0 mg/kg/injection, schedule: Q01DX005 (ip), vehicle: Klucel (hydroxypropylcellulose) (HPC)
  T/C: 100 % of control
[10]
  T/C: 101 % of control

## CC(=O)C1=C(C)NC(C)=C(C(C)=O)C1c1ccccc1
[11]
  T/C: 100 % of control
[12]
  T/C: 100 % of control
dose: 400.0 mg/kg/injection, schedule: Q01DX009 (ip), vehicle: saline with Tween-80
  T/C: 90 % of control

## N#Cc1ccc(OC(=O)Nc2ccccc2Cl)cc1
[10]
  T/C: 94 % of control
[13]
  T/C: 95 % of control
[14]
  T/C: 86 % of control

## COc1cc2c(cc1OC)C1Cc3cc(OC)c(OC)cc3[N+]1(C)CC2 (stereo not drawn)
[1]
  T/C: 103 % of control
[2]
  T/C: 103 % of control

## Nc1ccc2cc3ccc(N)cc3nc2c1
[15]
  T/C: 122 % of control
dose: 15.0 mg/kg/injection, schedule: Q01DX005 (ip), vehicle: saline
  T/C: 109 % of control
[7]
  T/C: 95 % of control
dose: 50.0 mg/kg/injection, schedule: Q04DX003 (ip), vehicle: saline
  T/C: 86 % of control

## C#CCn1cnc2c(=S)nc[nH]c21
dose: 180.0 mg/kg/injection, schedule: Q01DX009 (ip), vehicle: saline with Tween-80
  T/C: 87 % of control

## NC(=O)c1sc2ncccc2c1N
[10]
  T/C: 96 % of control
[13]
  T/C: 92 % of control
[14]
  T/C: 96 % of control

## CCC(C)C(NC(=O)C1CCCN1C(=O)OCc1ccccc1)C(=O)O (stereo not drawn) (Cbz-Pro-Ile-OH; configuration not given here)
[1]
  T/C: 100 % of control
[2]
  T/C: 106 % of control
[3]
  T/C: 98 % of control

## CN=NNc1ccc([N+](=O)[O-])cc1
dose: 12.5 mg/kg/injection, schedule: Q01DX009 (ip), vehicle: Klucel (hydroxypropylcellulose) (HPC)
  T/C: 98 % of control and 94 % of control
dose: 25.0 mg/kg/injection, schedule: Q01DX009 (ip), vehicle: Klucel (hydroxypropylcellulose) (HPC)
  T/C: 103 % of control and 109 % of control
dose: 50.0 mg/kg/injection, schedule: Q01DX009 (ip), vehicle: Klucel (hydroxypropylcellulose) (HPC)
  T/C: 108 % of control and 111 % of control
dose: 100.0 mg/kg/injection, schedule: Q01DX009 (ip), vehicle: Klucel (hydroxypropylcellulose) (HPC)
  T/C: 112 % of control
dose: 200.0 mg/kg/injection, schedule: Q01DX009 (ip), vehicle: Klucel (hydroxypropylcellulose) (HPC)
  T/C: 167 % of control

## O=C1OC2(CCCCC2)Cc2oc3ccccc3c(=O)c21
dose: 25.0 mg/kg/injection, schedule: Q01DX005 (ip), vehicle: Klucel (hydroxypropylcellulose) (HPC)
  T/C: 98 % of control
[16]
  T/C: 100 % of control
[17]
  T/C: 90 % of control

## CCC[CH2][Sn]([CH2]CCC)([CH2]CCC)[CH2]CC[N+](C)(C)C.CS(=O)(=O)[O-]
dose: 0.78 mg/kg/injection, schedule: Q01DX009 (ip), vehicle: saline
  T/C: 100 % of control
dose: 1.56 mg/kg/injection, schedule: Q01DX009 (ip), vehicle: saline
  T/C: 101 % of control
[18]
  T/C: 98 % of control

## N#CN(Cc1ccccc1)C(c1ccccc1)(c1ccccc1)c1ccccc1
dose: 100.0 mg/kg/injection, schedule: Q01DX001 (ip), vehicle: Klucel (hydroxypropylcellulose) (HPC)
  T/C: 90 % of control
dose: 200.0 mg/kg/injection, schedule: Q01DX001 (ip), vehicle: Klucel (hydroxypropylcellulose) (HPC)
  T/C: 91 % of control

## C=C1C[C@@]2(OC)OCC[C@H]3C(C)=CCC(C1=O)[C@]32C(=O)OC (stereo partly drawn)
[1]
  T/C: 105 % of control
[2]
  T/C: 105 % of control

## Cc1ccc(NC(=O)N(C)N=O)cc1
dose: 50.0 mg/kg/injection, schedule: Q01DX009 (ip), vehicle: saline with Tween-80
  T/C: 95 % of control
dose: 50.0 mg/kg/injection, schedule: Q04DX003 (ip), vehicle: saline with Tween-80
  T/C: 100 % of control
[11]
  T/C: 90 % of control
dose: 100.0 mg/kg/injection, schedule: Q04DX003 (ip), vehicle: saline with Tween-80
  T/C: 100 % of control
[12]
  T/C: 90 % of control
dose: 200.0 mg/kg/injection, schedule: Q04DX003 (ip), vehicle: saline with Tween-80
  T/C: 100 % of control

## CC1=CC(=C2C=CC(=[N+](C)C)C=C2)C=C(C)S1
dose: 3.12 mg/kg/injection, schedule: Q01DX009 (ip), vehicle: distilled water + Tween-80 + alcohol
  T/C: 109 % of control
dose: 6.25 mg/kg/injection, schedule: Q01DX009 (ip), vehicle: distilled water + Tween-80 + alcohol
  T/C: 119 % of control
dose: 12.5 mg/kg/injection, schedule: Q01DX009 (ip), vehicle: distilled water + Tween-80 + alcohol
  T/C: 120 % of control

## C=C(Cl)C(=NC(C)(C)C)Nc1c(Cl)cccc1Cl
[16]
  T/C: 98 % of control and 95 % of control
[17]
  T/C: 100 % of control
dose: 200.0 mg/kg/injection, schedule: Q01DX005 (ip), vehicle: Klucel (hydroxypropylcellulose) (HPC)
  T/C: 100 % of control and 90 % of control

## CCc1c(-c2ccccc2)nc(N)nc1-c1nc(N)nc(-c2ccccc2)c1CC
dose: 60.0 mg/kg/injection, schedule: Q01DX005 (ip), vehicle: saline
  T/C: 98 % of control
dose: 120.0 mg/kg/injection, schedule: Q01DX005 (ip), vehicle: saline
  T/C: 100 % of control

## COc1ccc(C2C3CCN2CC3)cc1 (stereo not drawn)
[19]
  T/C: 111 % of control
[15]
  T/C: 109 % of control

## O=C(NC(Cc1ccccc1)C(=O)O)OCC1c2ccccc2-c2ccccc21 (stereo not drawn)
[16]
  T/C: 108 % of control
[17]
  T/C: 105 % of control

## C[N+]1(C[Si](C)(C)c2ccccc2)CCOCC1
dose: 12.5 mg/kg/injection, schedule: Q01DX005 (ip), vehicle: saline
  T/C: 105 % of control
dose: 25.0 mg/kg/injection, schedule: Q01DX005 (ip), vehicle: saline
  T/C: 103 % of control
[4]
  T/C: 102 % of control and 104 % of control

## CCC(=O)Cc1nc2nnc(N)n2nc1CC(=O)CC
[4]
  T/C: 100 % of control
[5]
  T/C: 107 % of control
[6]
  T/C: 98 % of control

## COC(=O)C(O)CC1=CC[C@@H]2CC=C[C@H]12 (stereo partly drawn)
[1]
  T/C: 104 % of control
[2]
  T/C: 104 % of control
[3]
  T/C: 104 % of control

## Cc1ccc(S(=O)CC(O)CO)cc1 (stereo not drawn)
[7]
  T/C: 95 % of control
[8]
  T/C: 101 % of control
[9]
  T/C: 108 % of control

## Nc1cc(C(=O)O)cc(Cl)n1
[18]
  T/C: 108 % of control
[19]
  T/C: 101 % of control
[15]
  T/C: 107 % of control
dose: 25.0 mg/kg/injection, schedule: Q01DX009 (ip), vehicle: saline
  T/C: 111 % of control

## C=C1CCN(c2ccccc2)C1=O
dose: 4.0 mg/kg/injection, schedule: Q01DX009 (ip), vehicle: saline + alcohol
  T/C: 107 % of control
dose: 8.0 mg/kg/injection, schedule: Q01DX009 (ip), vehicle: saline + alcohol
  T/C: 92 % of control
dose: 16.0 mg/kg/injection, schedule: Q01DX009 (ip), vehicle: saline + alcohol
  T/C: 105 % of control
dose: 32.0 mg/kg/injection, schedule: Q01DX009 (ip), vehicle: saline + alcohol
  T/C: 101 % of control
dose: 64.0 mg/kg/injection, schedule: Q01DX009 (ip), vehicle: saline + alcohol
  T/C: 107 % of control

## CCC1(CC)C(=O)NC(=O)[N]([Sn]([CH2]C)([CH2]C)[N]2C(=O)NC(=O)C(CC)(CC)C2=O)C1=O
dose: 1.56 mg/kg/injection, schedule: Q01DX005 (ip), vehicle: Klucel (hydroxypropylcellulose) (HPC)
  T/C: 90 % of control
dose: 3.12 mg/kg/injection, schedule: Q01DX005 (ip), vehicle: Klucel (hydroxypropylcellulose) (HPC)
  T/C: 111 % of control and 117 % of control
dose: 6.25 mg/kg/injection, schedule: Q01DX005 (ip), vehicle: Klucel (hydroxypropylcellulose) (HPC)
  T/C: 120 % of control
dose: 12.5 mg/kg/injection, schedule: Q01DX005 (ip), vehicle: Klucel (hydroxypropylcellulose) (HPC)
  T/C: 111 % of control

## CCCN(CCC)C(C)C(O)c1cccc2ccccc12 (stereo not drawn)
[4]
  T/C: 97 % of control
[5]
  T/C: 109 % of control

## Oc1cc2c(cc1C(c1ccc3c(c1)OCO3)N1CCCCC1)OCO2 (stereo not drawn)
[10]
  T/C: 119 % of control
[13]
  T/C: 118 % of control
[14]
  T/C: 120 % of control

## CN(C)c1ccc2c(c1)C(=O)N(OS(=O)(=O)c1ccccc1)C2=O
[1]
  T/C: 100 % of control
[2]
  T/C: 103 % of control
[3]
  T/C: 96 % of control
